Experiments:
[1] = tested on: methicillin resistant Staphylococcus aureus (MRSA); test: standard microtiter broth serial dilution test, MRSA strains; type: cell-based; details: 23 strains of MRSA; approximately 10^5 colony forming units, 35° for 18 hours
Description: (§1) The antibacterial activity of the compounds of the invention may be readily determined using conventional test procedures. For example the antibacterial activity of the compounds of the invention was determined using a standard mictoriter broth serial dilution test. In this test the broth was incubated with approximately 10^5 colony forming units of the test organism and incubated at 35° for 18 hours in the presence of test compound.
(§2) In this list the compounds of the invention were tested using this procedure against 23 strains of MRSA and 10 strains of MRSE and the resultant minimum inhibitory concentrations (MIC90) in mg/litre determined.

[2] = tested on: methicillin resistant Staphylococcus epidermidis (MRSE); test: standard microtiter broth serial dilution test, MRSE strains; type: cell-based; details: 10 strains of MRSE; approximately 10^5 colony forming units, 35° for 18 hours
Description: as §1, §2

[3] = toxicity on administration to rats; type: in vivo; details: doses up to 1000 mg/kg
From the text: Compounds of the invention are in general non-toxic and therapeutically effective doses.

In the case of `C[C@@H](O)[C@H]1C(=O)N2C(C(=O)[O-])=C3/C(=C/c4ccccc4)CCC[C@@H]3[C@H]12.[Na+]` [Example 1, Sodium (8S,9R,10S,12R)-1-aza-10-(1-Hydroxyethyl)-11-oxo-4-[(E)-phenylmethylene]-tricyclo-[7,2,0,0^3.8]-undec-2-ene-2-carboxylate], the “MRSA MIC90” value [1] was 8 µg/mL and the “MRSE MIC90” value [2] was 4 µg/mL.
In the case of `C[C@@H](O)[C@H]1C(=O)N2C(C(=O)[O-])=C3/C(=C/c4nc(-c5ccncc5)cs4)CCC[C@@H]3[C@H]12.[Na+]` [Example 3, Sodium (8S,9R,10S,12R)-1-aza-10-(1-Hydroxyethyl)-11-oxo-4-[(E)-(4-(4′-pyridyl)thiazol-2-yl)methylene]-tricyclo-[7,2,0,0^3.8]-undec-2-ene-2-carboxylate], the “MRSA MIC90” value [1] was 4 µg/mL and the “MRSE MIC90” value [2] was 2 µg/mL.
In the case of `C[C@@H](O)[C@H]1C(=O)N2C(C(=O)[O-])=C3/C(=C/c4ccncc4)CCC[C@@H]3[C@H]12.[Na+]` [Example 5, Sodium (8S,9R,10S,12R)-1-aza-10-(1-Hydroxyethyl)-11-oxo-4-[(E)-(pyrid-4-yl)methylene]-tricyclo-[7,2,0,0^3.8]-undec-2-ene-2-carboxylate], the “MRSA MIC90” value [1] was 4 µg/mL, the “MRSE MIC90” value [2] was 2 µg/mL and the untoward effects [3] was “no untoward effects”.
For `C[C@@H](O)[C@H]1C(=O)N2C(C(=O)[O-])=C3/C(=C/c4ccc([N+](=O)[O-])cc4)CCC[C@@H]3[C@H]12.[Na+]` [Example 6, Sodium (8S,9R,10S,12R)-1-aza-10-(1-Hydroxyethyl)-11-oxo-4-[(E)-(4-nitrophenyl)methylene]-tricyclo-[7,2,0,0^3.8]-undec-2-ene-2-carboxylate], the “MRSA MIC90” value [1] was 2 µg/mL and the “MRSE MIC90” value [2] was 2 µg/mL.
In the case of `C[C@@H](O)[C@H]1C(=O)N2C(C(=O)[O-])=C3/C(=C/c4nc(-c5ccccc5)cs4)CCC[C@@H]3[C@H]12.[Na+]` [Example 7, Sodium (8S,9R,10S,12R)-1-aza-10-(1-Hydroxyethyl)-11-oxo-4-[(E)-(4-phenylthiazol-2-yl)methylene]-tricyclo-[7,2,0,0^3.8]-undec-2-ene-2-carboxylate], the “MRSA MIC90” value [1] was 4 µg/mL and the “MRSE MIC90” value [2] was 2 µg/mL.
For `C[C@@H](O)[C@H]1C(=O)N2C(C(=O)[O-])=C3/C(=C/c4cccc(-c5ccncc5)c4)CCC[C@@H]3[C@H]12.[Na+]` [Example 8, Sodium (8S,9R,10S,12R)-1-aza-10-(1-Hydroxyethyl)-11-oxo-4-[(E)-(3-(4′-pyridyl)phenyl)methylene]-tricyclo-[7,2,0,0^3.8]-undec-2-ene-2-carboxylate], the “MRSA MIC90” value [1] was 2 µg/mL and the “MRSE MIC90” value [2] was 2 µg/mL.
For `Cc1cc(/C=C2\CCC[C@H]3C2=C(C(=O)[O-])N2C(=O)[C@H]([C@@H](C)O)[C@@H]32)cc(C)n1.[Na+]` [Example 9, Sodium (8S,9R,10S,12R)-1-aza-10-(1-Hydroxyethyl)-11-oxo-4-[(E)-(2,6-dimethylpyridin-4-yl)methylene]-tricyclo-[7,2,0,0^3.8]-undec-2-ene-2-carboxylate], the “MRSA MIC90” value [1] was 8 µg/mL and the “MRSE MIC90” value [2] was 4 µg/mL.
In the case of `Cc1cc(/C=C2\CCC[C@H]3C2=C(C(=O)[O-])N2C(=O)[C@H]([C@@H](C)O)[C@@H]32)ccn1.[Na+]` [Example 10, Sodium (8S,9R,10S,12R)-1-aza-10-(1-Hydroxyethyl)-11-oxo-4-[(E)-(2-methylpyridin-4-yl)methylene]-tricyclo-[7,2,0,0^3.8]-undec-2-ene-2-carboxylate], the “MRSA MIC90” value [1] was 8 µg/mL and the “MRSE MIC90” value [2] was 4 µg/mL.
With `C[C@@H](O)[C@H]1C(=O)N2C(C(=O)[O-])=C3/C(=C/c4cc5ccccc5o4)CCC[C@@H]3[C@H]12.[Na+]` [Example 11] the “MRSA MIC90” value [1] was 4 µg/mL and the “MRSE MIC90” value [2] was 2 µg/mL.
With `C[C@@H](O)[C@H]1C(=O)N2C(C(=O)[O-])=C3/C(=C/c4ccnc(Cl)c4)CCC[C@@H]3[C@H]12.[Na+]` [Example 12] the “MRSA MIC90” value [1] was 4 µg/mL and the “MRSE MIC90” value [2] was 2 µg/mL.
For `C[C@@H](O)[C@H]1C(=O)N2C(C(=O)[O-])=C3/C(=C/c4cc5cnccc5o4)CCC[C@@H]3[C@H]12.[Na+]` [Example 13], the “MRSA MIC90” value [1] was 4 µg/mL and the “MRSE MIC90” value [2] was 4 µg/mL.
In the case of `C[C@@H](O)[C@H]1C(=O)N2C(C(=O)[O-])=C3/C(=C/c4ccnc(N)c4)CCC[C@@H]3[C@H]12.[Na+]` [Example 14, Sodium (8S,9R,10S,12R)-1-aza-10-(1-Hydroxyethyl)-11-oxo-4-[(E)-(2-aminopyrid-4-yl)methylene]-tricyclo-[7,2,0,0^3.8]-undec-2-ene-2-carboxylate], the “MRSA MIC90” value [1] was 8 µg/mL and the “MRSE MIC90” value [2] was 4 µg/mL.
For `C[C@@H](O)[C@H]1C(=O)N2C(C(=O)[O-])=C3/C(=C/c4ccc(Cl)c([N+](=O)[O-])c4)CCC[C@@H]3[C@H]12.[Na+]` [Example 15, Sodium (8S,9R,10S,12R)-1-aza-10-(1-Hydroxyethyl)-11-oxo-4-[(E)-(4-chloro-3-nitro-phenyl)methylene]-tricyclo-[7,2,0,0^3.8]-undec-2-ene-2-carboxylate], the “MRSA MIC90” value [1] was 4 µg/mL and the “MRSE MIC90” value [2] was 2 µg/mL.
With `C[C@@H](O)[C@H]1C(=O)N2C(C(=O)[O-])=C3/C(=C/c4cc5ccccc5s4)CCC[C@@H]3[C@H]12.[Na+]` [Example 16, Sodium (8S,9R,10S,12R)-1-aza-10-(1-Hydroxyethyl)-11-oxo-4-[(E)-(benzothiophen-2-yl)methylene]-tricyclo-[7,2,0,0^3.8]-undec-2-ene-2-carboxylate] the “MRSA MIC90” value [1] was 2 µg/mL and the “MRSE MIC90” value [2] was 1 µg/mL.
In the case of `C[C@@H](O)[C@H]1C(=O)N2C(C(=O)[O-])=C3/C(=C/c4csc5ccccc45)CCC[C@@H]3[C@H]12.[Na+]` [Example 17, Sodium (8S,9R,10S,12R)-1-aza-10-(1-Hydroxyethyl)-11-oxo-4-[(E-)(benzothiophen-3-yl)methylene]-tricyclo-[7,2,0,0^3.8]-undec-2-ene-2-carboxylate], the “MRSA MIC90” value [1] was 4 µg/mL and the “MRSE MIC90” value [2] was 2 µg/mL.
In the case of `C[C@@H](O)[C@H]1C(=O)N2C(C(=O)[O-])=C3/C(=C/c4cc(-c5cc[n+](CC(N)=O)cc5)cs4)CCC[C@@H]3[C@H]12` [Example 18, (8S,9R,10S,12R)-1-aza-10-(1-Hydroxyethyl)-11-oxo-4-[(E)-(4-(1′-(carbamoylmethyl)pyridinium-4-′-yl)thiophen-2-yl)methylene]-tricyclo-[7,2,0,0^3.8]-undec-2-ene-2-carboxylate], the “MRSA MIC90” value [1] was 4 µg/mL and the “MRSE MIC90” value [2] was 2 µg/mL.

Reference: patent US6531466B2, “Tricyclic carbapenem compounds” (GlaxoSmithKline SpA, priority 1996, dated 2003)
